Reference: patent publication US6558900B2, “Regulation of apoptosis and in vitro model for studies thereof” (Emory University, priority 1996, dated 2003)

Test system: hamster liver nuclei
Assay: Reconstitution of DNA fragmentation and nuclear morphological change in HeLa S-100 immunodepleted of cytochrome c
Type: biochemical
Experimental: Cytochrome c present in the HeLa cell S-100 was immunodepleted as described in the Example 10. In FIG. 7A, 10 μl aliquots of HeLa S-100 (50 μg) (lanes 1 and 2), or 10 μl aliquots of HeLa S-100 immunodepleted of cytochrome c (lanes 3 and 4), or 10 μl of HeLa S-100 immunodepleted of cytochrome c supplemented with 0.2 μg Apaf-2 purified through the Mono S column (H) (lanes 5 and 6), bovine heart cytochrome c (B) (lanes 7 and 8), or rat liver cytochrome c (R) (lanes 9 and 10), were incubated with aliquots of 3 μl in vitro translated, ^35S-labeled CPP32 in the absence (lanes 1, 3, 5, 7, 9) or presence (lanes 2, 4, 6, 8, 10) of 1 mM dATP at 30° C. for 1 hr in a final reaction volume of 20 μl of buffer A. Samples were subjected to SDS-PAGE and transferred to a nitrocellulose filter which were then exposed to film for 16 hr at room temperature. In FIG. 7B, HeLa S-100 (50 μg) immunodepleted of cytochrome c were reconstituted with the indicated amount of Apaf-2 (purified through Mono S column step) in a CPP32 cleavage reaction as described in FIG. 7A. The cleaved products (p20) were quantified in a Fuji-1000 phosphorimager machine and plotted in comparison with that generated by HeLa S-100. In FIG. 7C, aliquots of 50 μl of HeLa S-100 (250 μg) (lanes 1 and 2), or 50 μl of HeLa S-100 immunodepleted of cytochrome c (lanes 3 and 4), or 50 μl of HeLa S-100 immunodepleted of cytochrome c supplemented with 1 μg apaf-2 purified through the Mono S column (H) (lanes 5 and 6), bovine heart cytochrome c (B) (lanes 7 and 8), or rat liver cytochrome c (R) (lanes 9 and 10), were incubated with aliquots of 6 μl hamster liver nuclei in the absence (lanes 1, 3, 5, 7, 9) or presence (lanes 2, 4, 6, 8, 10) of 1 mM dATP at 37° C. for 2 hr in a final reaction volume of 60 μl. The DNA were isolated as described in the Examples, analyzed on 2% agarose gel electrophoresis, and the DNA was visualized by ethidium bromide staining. In FIG. 7D, DNA fragmentation assays were carried out as in FIG. 7C using HeLa S-100 immunodepleted of cytochrome c alone (a,b) or supplemented with Apaf-2 purified through Mono S column step (c,d) in the absence (a,c) or presence of 1 mM dATP (b,d). After 2 hr incubation at 37° C., an aliquot of each reaction (30 μl) was stained with 4′,6′-diamidino-2-phenylindole (DAPI), and observed under a fluorescence microscope with a UV-2A combination filter.
To rule out the possibility that the Apaf-2 activity is due to a minor contaminating protein that co-purified with cytochrome c, an immunodepletion experiment was carried out using a monoclonal antibody against rat cytochrome c. This monoclonal antibody cross-reacts with purified Apaf-2. […]

## Apaf-2: 15 kDa factor bound to phosphocellulose column, purified from HeLa S-100, identified as human cytochrome c
1 μg added to immunodepleted HeLa S-100, 1 mM dATP
  restoration of DNA fragmentation: restored
Immunodepleted S-100 supplemented with Apaf-2, 1 mM dATP
  nuclear morphological change (DAPI): accompanied by the morphological change in the co-incubated nuclei that is characteristic of apoptosis
